Assay results reported in patent publication US8198273B2, “Compounds and methods for kinase modulation, and indications therefor” (Plexxikon Inc., priority 2009, dated 2012).

Columns and labels:
B-Raf V600E = B-Raf V600E (Homo sapiens, UniProt P15056, V600E); assay: B-Raf V600E biochemical kinase inhibition (AlphaScreen, biotin-MEK1 substrate); settings: 100 μM ATP
How it was run: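 Eight-point compound series (made from a 0.1 mM DMSO stock) tested against each Raf enzyme with biotin-MEK1 substrate and 100 μM final ATP.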

CYP3A4(BFC) = CYP3A4(BFC) (Homo sapiens, UniProt P08684); assay: CYP3A4(BFC) inhibition (fluorescent substrate); format: in vitro ADME; settings: read-out: Cyp IC50 3A4(BFC)
Chain of CYP3A4(BFC) (P08684 whole entry): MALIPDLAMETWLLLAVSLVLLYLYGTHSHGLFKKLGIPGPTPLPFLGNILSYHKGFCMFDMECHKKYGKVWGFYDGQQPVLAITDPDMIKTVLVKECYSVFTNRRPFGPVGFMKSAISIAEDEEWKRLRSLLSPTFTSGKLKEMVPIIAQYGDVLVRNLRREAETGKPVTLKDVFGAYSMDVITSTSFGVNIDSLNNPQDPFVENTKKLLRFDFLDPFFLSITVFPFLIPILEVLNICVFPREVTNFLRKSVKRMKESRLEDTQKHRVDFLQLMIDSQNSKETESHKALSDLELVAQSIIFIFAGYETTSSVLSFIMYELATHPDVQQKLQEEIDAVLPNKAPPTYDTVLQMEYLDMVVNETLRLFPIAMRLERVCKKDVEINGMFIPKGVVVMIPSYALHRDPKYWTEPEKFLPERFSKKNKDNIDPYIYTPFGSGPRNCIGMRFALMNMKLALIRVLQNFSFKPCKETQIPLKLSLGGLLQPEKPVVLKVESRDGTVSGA
How it was run: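 Compound, from a 100 mM DMSO stock and diluted 1:1 over 10 points in co-factor mix, was incubated at 37° C with enzyme and a known substrate. Decrease in fluorescent product against concentration gave the IC50.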

CYP2C9 = CYP2C9 (Homo sapiens, UniProt P11712); assay: CYP2C9 inhibition (fluorescent substrate); format: in vitro ADME; settings: CYP2C9, MFC substrate; read-out: Cyp IC50 2C9
Chain of CYP2C9 (P11712 whole entry): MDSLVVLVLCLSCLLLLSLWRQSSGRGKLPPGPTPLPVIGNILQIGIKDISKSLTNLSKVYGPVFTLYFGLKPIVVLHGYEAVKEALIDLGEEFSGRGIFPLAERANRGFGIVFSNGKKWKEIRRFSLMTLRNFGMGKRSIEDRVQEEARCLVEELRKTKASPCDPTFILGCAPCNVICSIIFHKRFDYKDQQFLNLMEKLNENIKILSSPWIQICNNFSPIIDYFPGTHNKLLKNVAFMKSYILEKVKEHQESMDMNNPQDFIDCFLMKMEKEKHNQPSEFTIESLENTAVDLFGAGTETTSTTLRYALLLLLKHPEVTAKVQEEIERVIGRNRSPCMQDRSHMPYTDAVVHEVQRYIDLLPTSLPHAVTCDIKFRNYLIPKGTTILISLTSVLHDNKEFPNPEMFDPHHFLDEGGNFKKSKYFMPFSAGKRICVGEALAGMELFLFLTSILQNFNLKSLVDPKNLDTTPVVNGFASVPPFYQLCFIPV
Procedure: CYP (Cytochrome P450) enzymes are the major drug metabolizing enzymes present in the liver. The inhibition of CYP enzyme activity (IC50) for each of CYP1A2, CYP2C19, CYP2C9, CYP2D6, CYP3A4(BFC) and CYP3A4(BQ) is determined for compounds, where inhibition of metabolism of a known substrate leads to a decrease in the fluorescence of the metabolized product. The fluorescence of the product is monitored as a function of compound concentration.
Compounds are dissolved in dimethyl sulfoxide to a concentration of 100 mM. These are diluted 1 μL into 82 μL of acetonitrile. […] These are then serially diluted 1:1 (160 μL to 160 μL co-factor mix) for a total of 10 points. A 10 μL aliquot of this final mixture is dispensed into 384 well assay plates and incubated for 10 minutes at 37° C. […] Assay plates are incubated at 37° C. […] The signal versus compound concentration is used to determine the IC50. The enzymes and substrates for this assay are obtained from BD Biosciences.

Chain of B-Raf V600E (P15056 whole entry V600E): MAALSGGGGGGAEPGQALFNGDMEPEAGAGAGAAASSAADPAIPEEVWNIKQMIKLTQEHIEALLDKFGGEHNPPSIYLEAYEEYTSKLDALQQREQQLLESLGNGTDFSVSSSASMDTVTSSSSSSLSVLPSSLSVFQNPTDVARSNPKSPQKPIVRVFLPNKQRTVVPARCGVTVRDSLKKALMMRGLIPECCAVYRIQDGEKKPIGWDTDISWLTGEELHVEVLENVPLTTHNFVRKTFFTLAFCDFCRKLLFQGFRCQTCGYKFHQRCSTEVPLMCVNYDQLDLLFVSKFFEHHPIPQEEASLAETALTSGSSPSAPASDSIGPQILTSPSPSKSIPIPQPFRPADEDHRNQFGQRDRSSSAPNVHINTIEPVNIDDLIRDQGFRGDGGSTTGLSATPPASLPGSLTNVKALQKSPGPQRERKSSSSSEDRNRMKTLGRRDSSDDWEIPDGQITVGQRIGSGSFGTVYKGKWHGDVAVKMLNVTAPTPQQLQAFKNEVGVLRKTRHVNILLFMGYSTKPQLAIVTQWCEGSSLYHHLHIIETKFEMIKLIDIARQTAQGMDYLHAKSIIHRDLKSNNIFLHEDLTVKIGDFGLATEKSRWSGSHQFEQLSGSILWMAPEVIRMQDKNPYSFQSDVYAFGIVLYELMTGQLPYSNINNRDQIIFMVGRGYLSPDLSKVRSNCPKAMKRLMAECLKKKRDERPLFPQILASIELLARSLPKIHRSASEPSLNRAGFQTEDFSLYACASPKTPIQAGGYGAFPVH

| IC50 (B-Raf V600E) [µM] | IC50 (CYP3A4(BFC)) [µM] | IC50 (CYP2C9) [µM] | SMILES |
| --- | --- | --- | --- |
| < 0.01 | > 10 | > 10 | CCCS(=O)(=O)Nc1ccc(F)c(C(=O)c2c[nH]c3ncc(-c4ccc(OCCN5CCCC5)nc4)cc23)c1F [P-2233, Propane-1-sulfonic acid (2,4-difluoro-3-{5-[6-(2-pyrrolidin-1-yl-ethoxy)-pyridin-3-yl]-1H-pyrrolo[2,3-b]pyridine-3-carbonyl}-phenyl)-amide] |
| < 0.01 | < 5 | 5 to 10 | C#Cc1cnc2[nH]cc(C(=O)c3c(F)ccc(NS(=O)(=O)CCC)c3F)c2c1 [P-2260, Propane-1-sulfonic acid [3-(5-ethynyl-1H-pyrrolo[2,3-b]pyridine-3-carbonyl)-2,4-difluoro-phenyl]-amide] |
| < 0.01 | > 10 | > 10 | CCCS(=O)(=O)Nc1ccc(F)c(C(=O)c2c[nH]c3ncc(-c4ccc(OCCCN5CCCC5)nc4)cc23)c1F [P-2235, Propane-1-sulfonic acid (2,4-difluoro-3-{5-[6-(3-pyrrolidin-1-yl-propoxy)-pyridin-3-yl]-1H-pyrrolo[2,3-b]pyridine-3-carbonyl}-phenyl)-amide] |

More lines, now with the values behind:

| SMILES | IC50 (B-Raf V600E) [µM] | IC50 (CYP3A4(BFC)) [µM] | IC50 (CYP2C9) [µM] |
| --- | --- | --- | --- |
| Cc1cnc2[nH]cc(C(=O)c3c(F)ccc(NS(=O)(=O)c4cccnc4)c3F)c2c1 [P-2069, Pyridine-3-sulfonic acid [2,4-difluoro-3-(5-methyl-1H-pyrrolo[2,3-b]pyridine-3-carbonyl)-phenyl]-amide] | < 0.01 | < 5 | < 5 |
| CCCS(=O)(=O)Nc1ccc(F)c(C(=O)c2c[nH]c3ncc(-c4ccc(C(=O)NCC)nc4)cc23)c1F [P-2151, 5-{3-[2,6-Difluoro-3-(propane-1-sulfonylamino)-benzoyl]-1H-pyrrolo[2,3-b]pyridin-5-yl}-pyridine-2-carboxylic acid ethylamide] | < 0.01 | > 10 | 5 to 10 |
| CCCS(=O)(=O)Nc1ccc(F)c(C(=O)c2c[nH]c3ncc(-c4cccc(S(C)(=O)=O)c4)cc23)c1F [P-2228, Propane-1-sulfonic acid {2,4-difluoro-3-[5-(3-methanesulfonyl-phenyl)-1H-pyrrolo[2,3-b]pyridine-3-carbonyl]-phenyl}-amide] | < 0.01 | > 10 | > 10 |
| COc1ncc(-c2cnc3[nH]cc(C(=O)c4c(F)ccc(NS(=O)(=O)c5c(F)cccc5F)c4F)c3c2)cn1 [P-2043, N-{2,4-Difluoro-3-[5-(2-methoxy-pyrimidin-5-yl)-1H-pyrrolo[2,3-b]pyridine-3-carbonyl]-phenyl}-2,6-difluoro-benzenesulfonamide] | < 0.01 | > 10 | > 10 |
| CCCS(=O)(=O)Nc1ccc(F)c(C(=O)c2c[nH]c3ncc(-c4cnc(N5CCOCC5)nc4)cc23)c1F [P-2197, Propane-1-sulfonic acid {2,4-difluoro-3-[5-(2-morpholin-4-yl-pyrimidin-5-yl)-1H-pyrrolo[2,3-b]pyridine-3-carbonyl]-phenyl}-amide] | < 0.01 | > 10 | > 10 |
| CCCS(=O)(=O)Nc1ccc(F)c(C(=O)c2c[nH]c3ncc(-c4ccc(C(=O)NC)nc4)cc23)c1F [P-2180, 5-{3-[2,6-Difluoro-3-(propane-1-sulfonylamino)-benzoyl]-1H-pyrrolo[2,3-b]pyridin-5-yl}-pyridine-2-carboxylic acid methylamide] | < 0.01 | > 10 | < 5 |
| CCCS(=O)(=O)Nc1ccc(F)c(C(=O)c2c[nH]c3ncc(-c4cncc(S(C)(=O)=O)c4)cc23)c1F [P-2188, Propane-1-sulfonic acid {2,4-difluoro-3-[5-(5-methanesulfonyl-pyridin-3-yl)-1H-pyrrolo[2,3-b]pyridine-3-carbonyl]-phenyl}-amide] | < 0.01 | > 10 | 5 to 10 |
